Reference: US7687501B2, “Pyridothienopyridazinone derivatives as mGluR1 antagonists” (Schering Corporation, priority 2005, dated 2010)
Where two headings read alike, the source gives them in different places.

Target: T1, hmGluR1 receptor (Homo sapiens, UniProt Q13255)
T1 construct: expressed in transfected cells; host or cells: CHO
Test: IC50 determination: intracellular calcium mobilization (FLIPR) upon Quisqualate stimulation in CHO cell line stably expressing hmGluR1
Format: cell-based
Settings: CHO cells expressing hmGluR1, against Quisqualate 1 μM (EC80), compounds added 10 minutes before Quisqualate
Experimental: A CHO cell line stably expressing hmGluR1 receptor was established. One day prior to assay, cells were split in growth media at concentration of 50,000 cells/well in a volume of 100 μl and seeded into black clear-bottom 96-well plates. After two to six hours, when cells were well attached to the plate, growth medium was replaced with assay medium (100 μL) consisting of DMEM high glucose, supplemented with GPT (1 U/mL) and sodium pyruvate, 1 mM. Following overnight incubation, medium was discarded and cells were loaded for 2 hours with dye from the Calcium 3 Assay Reagent Kit (Molecular Devices, # R8033), prepared according to manufacturers' instructions. A 96-tip pipettor/fluorometric imaging plate reader (FLIPR 384; Molecular Devices) was used and intracellular calcium mobilization was measured by increases in fluorescence upon agonist Quisqualate stimulation following 6 sec-baseline measurement. Test compounds were added 10 minutes before Quisqualate. IC50 determinations for tested compounds were generated against Quisqualate 1 μM corresponding to EC80 value in a standard dose response curve.

T1 sequence (Q13255 19-1194): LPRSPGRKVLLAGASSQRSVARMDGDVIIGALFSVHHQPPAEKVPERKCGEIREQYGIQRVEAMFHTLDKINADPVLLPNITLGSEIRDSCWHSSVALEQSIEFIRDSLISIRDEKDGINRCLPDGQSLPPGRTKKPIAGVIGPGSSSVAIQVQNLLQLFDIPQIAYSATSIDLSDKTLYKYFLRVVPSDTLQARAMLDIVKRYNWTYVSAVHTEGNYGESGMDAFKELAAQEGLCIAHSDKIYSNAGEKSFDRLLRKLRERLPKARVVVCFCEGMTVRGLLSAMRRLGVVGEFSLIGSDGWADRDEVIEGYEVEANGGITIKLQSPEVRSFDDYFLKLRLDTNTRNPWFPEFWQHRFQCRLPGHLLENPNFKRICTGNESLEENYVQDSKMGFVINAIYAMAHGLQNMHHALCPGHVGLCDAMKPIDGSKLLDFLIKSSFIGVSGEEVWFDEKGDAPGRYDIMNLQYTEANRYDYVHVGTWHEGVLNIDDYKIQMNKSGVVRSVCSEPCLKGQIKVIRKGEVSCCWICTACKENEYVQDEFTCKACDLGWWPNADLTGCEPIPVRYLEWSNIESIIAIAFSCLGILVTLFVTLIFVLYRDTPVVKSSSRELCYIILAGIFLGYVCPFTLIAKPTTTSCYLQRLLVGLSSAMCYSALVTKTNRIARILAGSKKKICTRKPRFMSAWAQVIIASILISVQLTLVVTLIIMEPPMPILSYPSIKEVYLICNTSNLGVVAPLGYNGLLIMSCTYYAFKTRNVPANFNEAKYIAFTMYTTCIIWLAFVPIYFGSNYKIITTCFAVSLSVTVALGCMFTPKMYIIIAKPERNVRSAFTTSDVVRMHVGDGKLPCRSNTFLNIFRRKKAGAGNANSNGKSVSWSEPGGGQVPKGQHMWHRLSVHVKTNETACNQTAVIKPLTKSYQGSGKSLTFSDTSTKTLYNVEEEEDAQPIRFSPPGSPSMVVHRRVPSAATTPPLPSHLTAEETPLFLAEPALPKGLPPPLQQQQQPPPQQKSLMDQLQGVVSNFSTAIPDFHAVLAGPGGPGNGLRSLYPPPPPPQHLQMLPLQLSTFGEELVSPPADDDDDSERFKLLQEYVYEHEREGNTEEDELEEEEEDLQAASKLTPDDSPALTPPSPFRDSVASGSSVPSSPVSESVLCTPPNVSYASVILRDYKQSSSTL

With `COc1ncnc2sc3c(=O)n(-c4ccc(Cl)cc4)ncc3c12` [Compound 34A] the IC50 (read-out: mGluR1 IC50 rating) was 20 to 100 nM.

For `Cc1ccc(-n2ncc3c(sc4nccc(NCCO)c43)c2=O)cc1` [Compound 23H], the IC50 (read-out: mGluR1 IC50 rating) was 100 to 1000 nM.

With `COc1ccnc2sc3c(=O)n(-c4ccc(Cl)cc4)ncc3c12` [Compound 21A] the IC50 (read-out: mGluR1 IC50 rating) was 20 to 100 nM.

`Cc1ccc(-n2ncc3c(sc4nccc(N(C)C)c43)c2=O)cc1` [Compound 9A] was tested, and the IC50 (read-out: mGluR1 IC50) was 3.6 nM and the IC50 (read-out: mGluR1 IC50 rating) was less than 20 nM.

Work on `CN(C)c1ccnc2sc3c(=O)n(-c4ccc(Br)cc4)ncc3c12` [Compound 9D] yielded an IC50 (read-out: mGluR1 IC50) of 2.9 nM and an IC50 (read-out: mGluR1 IC50 rating) of less than 20 nM.

`COc1ccc(-n2ncc3c(sc4ncnc(OC)c43)c2=O)cc1` [Compound 34B] was tested, and the IC50 (read-out: mGluR1 IC50 rating) was 100 to 1000 nM.

For `Cc1nn(C2CCCCC2)c(=O)c2sc3nccc(N(C)C)c3c12` [Compound 13C], the IC50 (read-out: mGluR1 IC50 rating) was greater than 1000 nM.

With `COc1ccc(-n2ncc3c(sc4nccc(N5CC(O)C5)c43)c2=O)cc1` [Compound 23P] the IC50 (read-out: mGluR1 IC50 rating) was 100 to 1000 nM.

Work on `CCNc1ccnc2sc3c(=O)n(-c4ccc(Cl)cc4)ncc3c12` [Compound 23K] yielded an IC50 (read-out: mGluR1 IC50 rating) of 20 to 100 nM.

In the case of `Cc1ccc(-n2ncc3c(sc4nccc(NC5CC5)c43)c2=O)cc1` [Compound 23G], the IC50 (read-out: mGluR1 IC50) is reported as 18.5 nM and the IC50 (read-out: mGluR1 IC50 rating) is reported as less than 20 nM.

Work on `O=c1c2sc3nccc(NC4CCC4)c3c2cnn1-c1ccc(Cl)cc1` [Compound 23J] yielded an IC50 (read-out: mGluR1 IC50 rating) of 100 to 1000 nM.

With `CN(C)c1ccnc2sc3c(=O)n(-c4ccc5ncsc5c4)ncc3c12` [Compound 9F] the IC50 (read-out: mGluR1 IC50) was 7.8 nM and the IC50 (read-out: mGluR1 IC50 rating) was less than 20 nM.

`O=c1c2sc3nccc(NCCO)c3c2cnn1-c1ccc(Cl)cc1` [Compound 23D] gave an IC50 (read-out: mGluR1 IC50 rating) of 20 to 100 nM.

`COc1ccc(-n2ncc3c(sc4nccc(NC5CC5)c43)c2=O)cc1` [Compound 23B] was tested, and the IC50 (read-out: mGluR1 IC50 rating) was 100 to 1000 nM.

`CNc1ccnc2sc3c(=O)n(-c4ccc(C)cc4)ncc3c12` [Compound 23Q] gave an IC50 (read-out: mGluR1 IC50 rating) of 20 to 100 nM.

`CCNc1ncnc2sc3c(=O)n(-c4ccc(OC)cc4)ncc3c12` [Compound 35A] gave an IC50 (read-out: mGluR1 IC50 rating) of 100 to 1000 nM.

`CNc1ncnc2sc3c(=O)n(-c4ccc(OC)cc4)ncc3c12` [Compound 35C] gave an IC50 (read-out: mGluR1 IC50 rating) of 100 to 1000 nM.

In the case of `Cc1ccc(-n2nc(C)c3c(sc4nccc(N(C)C)c43)c2=O)cc1` [Compound 13B], the IC50 (read-out: mGluR1 IC50 rating) is reported as greater than 1000 nM.

In the case of `COc1ccnc2sc3c(=O)n(-c4ccc(C)cc4)ncc3c12` [Compound 21C], the IC50 (read-out: mGluR1 IC50) is reported as 12.8 nM and the IC50 (read-out: mGluR1 IC50 rating) is reported as less than 20 nM.

Molecule `C#CCNc1ccnc2sc3c(=O)n(-c4ccc(C)cc4)ncc3c12` [Compound 23S] has an IC50 (read-out: mGluR1 IC50 rating) of 20 to 100 nM.

Work on `Cc1n[nH]c(=O)c2sc3nccc(N(C)C)c3c12` [Compound 13A] yielded an IC50 (read-out: mGluR1 IC50 rating) greater than 1000 nM.

In the case of `CCNc1ccnc2sc3c(=O)n(-c4ccc(OC)cc4)ncc3c12` [Compound 23O], the IC50 (read-out: mGluR1 IC50 rating) is reported as 100 to 1000 nM.

`CNc1ccnc2sc3c(=O)n(-c4ccc(OC)cc4)ncc3c12` [Compound 23N] was tested, and the IC50 (read-out: mGluR1 IC50 rating) was 20 to 100 nM.

`CN(C)c1ccnc2sc3c(=O)n(-c4ccc5scnc5c4)ncc3c12` [Compound 9E] showed an IC50 (read-out: mGluR1 IC50) of 4.3 nM and an IC50 (read-out: mGluR1 IC50 rating) of less than 20 nM.

`COc1ccc(-n2ncc3c(sc4nccc(N(C)N)c43)c2=O)cc1` [Compound 23I] was tested, and the IC50 (read-out: mGluR1 IC50) was 3.6 nM and the IC50 (read-out: mGluR1 IC50 rating) was less than 20 nM.

`O=c1c2sc3nccc(NC4CC4)c3c2cnn1-c1ccc(Cl)cc1` [Compound 23A] was tested, and the IC50 (read-out: mGluR1 IC50) was 13.7 nM and the IC50 (read-out: mGluR1 IC50 rating) was less than 20 nM.

Work on `COCCNc1ccnc2sc3c(=O)n(-c4ccc(OC)cc4)ncc3c12` [Compound 23E] yielded an IC50 (read-out: mGluR1 IC50 rating) greater than 1000 nM.

With `COc1ccc(-n2ncc3c(sc4nccc(OC)c43)c2=O)cc1` [Compound 21B] the IC50 (read-out: mGluR1 IC50 rating) was 20 to 100 nM.

With `COc1ccc(-n2ncc3c(sc4ncnc(NC5CC5)c43)c2=O)cc1` [Compound 35B] the IC50 (read-out: mGluR1 IC50 rating) was 20 to 100 nM.

Molecule `CN(C)c1ccnc2sc3c(=O)n(-c4ccc(Cl)cc4)ncc3c12` [Compound 9C] has an IC50 (read-out: mGluR1 IC50) of 2.4 nM and an IC50 (read-out: mGluR1 IC50 rating) of less than 20 nM.

Molecule `COc1ccc(-n2ncc3c(sc4nccc(N5CCC5)c43)c2=O)cc1` [Compound 23L] has an IC50 (read-out: mGluR1 IC50 rating) of 100 to 1000 nM.

`COc1ccc(-n2nc(C)c3c(sc4nccc(N(C)C)c43)c2=O)cc1` [Compound 13D] was tested, and the IC50 (read-out: mGluR1 IC50 rating) was greater than 1000 nM.

With `COc1ccc(-n2ncc3c(sc4nccc(N(C)C)c43)c2=O)cc1` [Compound 9B] the IC50 (read-out: mGluR1 IC50) was 4.5 nM and the IC50 (read-out: mGluR1 IC50 rating) was less than 20 nM.

Molecule `CCNc1ccnc2sc3c(=O)n(-c4ccc(C)cc4)ncc3c12` [Compound 23R] has an IC50 (read-out: mGluR1 IC50) of 18 nM and an IC50 (read-out: mGluR1 IC50 rating) of less than 20 nM.

`CN(C)c1ccnc2sc3c(=O)n(C4CCCCC4)ncc3c12` [Compound 9G] gave an IC50 (read-out: mGluR1 IC50 rating) of 20 to 100 nM.

Molecule `C#CCNc1ccnc2sc3c(=O)n(-c4ccc(OC)cc4)ncc3c12` [Compound 23M] has an IC50 (read-out: mGluR1 IC50 rating) of 100 to 1000 nM.

`COc1ccc(-n2ncc3c(sc4nccc(NCCO)c43)c2=O)cc1` [Compound 23F] gave an IC50 (read-out: mGluR1 IC50 rating) of 100 to 1000 nM.

Work on `CNc1ccnc2sc3c(=O)n(-c4ccc(Cl)cc4)ncc3c12` [Compound 23C] yielded an IC50 (read-out: mGluR1 IC50 rating) of less than 20 nM.
